For the series the following is noted: nicotine used in the experiments. How it is done:
Mixtures were prepared of 10%, 20% and 50% by weight of nicotine on Florite® PS-200 grade and on Florite® R-grade.

Data on 1 molecule can be found in patent US12708136B2, “Supported nicotine composition” (priority 2021, dated 2026).

As for `CN1CCCC1c1cccnc1` (stereo not shown) [nicotine], the “starting level of impurity myosmine” value turned out to be 0.14%.
